Read-outs that look alike come from different tables or passages of the source.
Legend:
[1] = tested on: pancreatic cancer cell line ASPC-1; assay: Cell growth inhibitory activity, ASPC-1; type: cell-based; details: Table 7
Protocol: [The source words this procedure for another cell line and reports this cell line under the same test.] (§1) The cell growth inhibitory activity against a colorectal cancer cell line HCT116 was measured. As an index of cell growth inhibitory activity, a concentration at which cell growth was inhibited by 50% as compared with a control (IC50) was used. The method is as follows. HCT116 was added to a 6-well plate by 5×10^4, compounds having various concentrations were added after 24 hours, and the number of cells was counted after 72 hours of culture. As the control, DMSO was used in an amount equal to the amount added in accordance with the addition concentration of the highest-concentration compound. The number of cells at each concentration relative to the control was expressed as a percentage.
(§2) The method is as described above.

[2] = tested on: pancreatic cancer cell line Panc-1; assay: Cell growth inhibitory activity, Panc-1; type: cell-based; details: Table 7
Protocol: [The source words this procedure for another cell line and reports this cell line under the same test.] as §1, §2

[3] = tested on: cutaneous T-cell lymphoma cell line HUT78; assay: Cell growth inhibitory activity, HUT78; type: cell-based; details: Table 10
Protocol: [The source words this procedure for another cell line and reports this cell line under the same test.] as §1, §2

[4] = tested on: malignant melanoma cell line G361; assay: Cell growth inhibitory activity, G361; type: cell-based; details: Table 9
Protocol: [The source words this procedure for another cell line and reports this cell line under the same test.] as §1, §2

[5] = tested on: cutaneous T-cell lymphoma cell line HH; assay: Cell growth inhibitory activity, HH; type: cell-based; details: Table 10
Protocol: [The source words this procedure for another cell line and reports this cell line under the same test.] as §1, §2

Turbidity measurement = type: physicochemical; details: for Turbidity (Relative Value): Table 3, relative to curcumin = 1
Protocol: The turbidity of various compounds was measured. The method is as follows. […] Curcumin was cloudy while GO-Y199 was clear. The solubility was measured with a turbidimeter (WZB-170 Portable Turbidimeter available from REX). The turbidity of the compound was corrected for concentration.
Subsequently, GO-Y206 and curcumin were adjusted to final concentrations of 1.25 μM and 5.00 μM, respectively, and their turbidities were measured.

[6] = tested on: colorectal cancer cell line HCT116; assay: Cell growth inhibitory activity, HCT116; type: cell-based
Protocol: as §1, §2
(§3) The cell growth inhibitory activity (IC50) of each of curcumin, GO-Y199, and GO-Y206 against the colorectal cancer cell lines DLD-1 and HCT116 and the gastric cancer cell lines KATO III and H-111-TC was measured. The method is as described above.

[7] = tested on: vascular endothelial cells HUVEC-R resistant to Ki8751; assay: Angiogenesis inhibitory activity, HUVEC-R; type: cell-based; details: Table 11, number of cells after 72 hours
Protocol: HUVEC-R was cultured in the presence of each compound using an EGMTM-2 Bullet Kit (Takara Bio Inc., Otsu, Japan), and the number of cells was measured after 72 hours. In addition, IC50 was determined from the results.

[8] = tested on: malignant pleural mesothelioma cell line NCI-H226; assay: Cell growth inhibitory activity, NCI-H226; type: cell-based; details: Table 8
Protocol: as §1, with “percentage. In Table 3, the turbidities of the compounds are also indicated.” for “percentage.”
(§4) GO-Y198, GO-Y199, and GO-Y200 against malignant pleural mesothelioma cell lines NCI-H226 and MSTO211H was measured. The method is as described above. For comparison, the IC50 of cisplatin (CDDP), a cytocidal anticancer agent, is also indicated.

[9] = tested on: malignant pleural mesothelioma cell line MSTO211H; assay: Cell growth inhibitory activity, MSTO211H; type: cell-based; details: Table 8
Protocol: as §1, with “percentage. In Table 3, the turbidities of the compounds are also indicated.” for “percentage.”
as §4

[10] = tested on: gastric cancer cell line SH-10-TC; assay: Cell growth inhibitory activity, SH-10-TC; type: cell-based; details: SH-10-TC; Table 4; 72 hours
Protocol: [The source words this procedure for another cell line and reports this cell line under the same test.] as §1, §2

[11] = tested on: colorectal cancer cell line DLD-1; assay: Cell growth inhibitory activity, DLD-1; type: cell-based; details: Homo sapiens, DLD-1
Protocol: as §1, §2, §3

[12] = tested on: gastric cancer cell line H-111-TC; assay: Cell growth inhibitory activity, H-111-TC; type: cell-based; details: Table 6
Protocol: as §1, with “percentage. In Table 3, the turbidities of the compounds are also indicated.” for “percentage.”
as §3, with “above. FIG. 8 indicates the results of cell growth inhibitory activity of these compounds against various cancer cell lines.” for “above.”

[13] = tested on: gastric cancer cell line GCIY; assay: Cell growth inhibitory activity, GCIY; type: cell-based; details: Homo sapiens, GCIY; Table 4; 72 hours
Protocol: [The source words this procedure for another cell line and reports this cell line under the same test.] as §1, §2

[14] = tested on: gastric cancer cell line KATO III; assay: Cell growth inhibitory activity, KATO III; type: cell-based; details: Homo sapiens, KATO III; Table 6; read-out: IC50 (μM) KATO III
Protocol: as §1, §2, §3

[15] = Table 1, average turbidity corrected for final concentration (1.7-170 μm, per compound)
[16] = Table 1, turbidity/μm relative to curcumin = 1
[17] = Table 3, HCT116, cell count after 72 hours of culture vs DMSO control, read-out: IC50

## COc1cc(/C=C/C(=O)/C=C/c2ccc(O)c(OC)c2)ccc1O [GO-Y022, reference compound]
[1]
  IC50: 8.52 µM
[2]
  IC50: 6.67 µM
[3]
  IC50: 4.03 µM
[4]
  IC50: 3.1 µM
[5]
  IC50: 9.16 µM
Turbidity measurement; [15]
  Turbidity/μm: 0.014 NTU/μM
Turbidity measurement; [16]
  Relative Value (turbidity): 0.048
Turbidity measurement
  Turbidity (Relative Value): 0.048
Turbidity measurement; final conc. 8.3 μm in DDW
  Ave Turbidity (NTU): 0.12 ± 0.0094 NTU
[6]; [17]
  IC50: 2.02 µM
[7]
  IC50: 4.7 µM

## COCOc1cc(/C=C/C(=O)/C=C/c2cc(OCOC)cc(OCOC)c2)cc(OCOC)c1 [GO-Y030, (1E,4E)-1,5-bis-[3,5-bis(methoxymethoxy)phenyl]pentadiene-3-one, reference compound]
Turbidity measurement; [15]
  Turbidity/μm: 2.68 NTU/μM
Turbidity measurement; final conc. 17 μm in DDW
  Ave Turbidity (NTU): 45.6 ± 0.21 NTU
Turbidity measurement; individual measurements, final conc. 170 μm, DMSO stock diluted in 30 mL DDW
  Turbidity (NTU): over limit

## COCOc1cc(/C=C/C(=O)CC(SCCOCCOCCOCCOCc2cn([C@H]3O[C@@H](CO)[C@H](O)[C@@H](O)[C@@H]3O)nn2)c2cc(OCOC)cc(OCOC)c2)cc(OCOC)c1 (stereo partly shown) [GO-Y197]
[8]
  IC50: 4 µM
[3]
  IC50: 0.81 µM
[4]
  IC50: 1.1 µM
[5]
  IC50: 1.11 µM
[9]
  IC50: 3.9 µM
Turbidity measurement; [15]
  Turbidity/μm: 0 NTU/μM
Turbidity measurement; [16]
  Relative Value (turbidity): 0
Turbidity measurement
  Turbidity (Relative Value): 0
Turbidity measurement; final conc. 8.3 μm in DDW
  Ave Turbidity (NTU): 0 NTU
[6]; [17]
  IC50: 0.7 µM
[7]
  IC50: 0.96 µM

## COCOc1cc(/C=C/C(=O)CC(SCCOCCOCCOCCOCc2cn([C@H]3O[C@H](CO)[C@@H](O)[C@H](O)[C@@H]3O)nn2)c2cc(OCOC)cc(OCOC)c2)cc(OCOC)c1 (stereo partly shown) [GO-Y198]
[8]
  IC50: 4.2 µM
[3]
  IC50: 0.51 µM
[5]
  IC50: 1.15 µM
[9]
  IC50: 0.9 µM
Turbidity measurement; [15]
  Turbidity/μm: 0 NTU/μM
Turbidity measurement; [16]
  Relative Value (turbidity): 0
Turbidity measurement
  Turbidity (Relative Value): 0
Turbidity measurement; final conc. 8.3 μm in DDW
  Ave Turbidity (NTU): 0 NTU
[6]; [17]
  IC50: 0.44 µM
[7]
  IC50: 1.08 µM

## COCOc1cc(/C=C/C(=O)CC(SCCOCCOCCOCCOCc2cn([C@@H]3O[C@H](CO)[C@@H](O[C@H]4O[C@H](CO)[C@@H](O)[C@H](O)[C@H]4O)[C@H](O)[C@H]3O)nn2)c2cc(OCOC)cc(OCOC)c2)cc(OCOC)c1 (stereo partly shown) [GO-Y200]
[1]
  IC50: 1.33 µM
[8]
  IC50: 4.7 µM
[2]
  IC50: 0.91 µM
[3]
  IC50: 0.91 µM
[5]
  IC50: 1.31 µM
[9]
  IC50: 4.5 µM
Turbidity measurement; [15]
  Turbidity/μm: 0 NTU/μM
Turbidity measurement; [16]
  Relative Value (turbidity): 0
Turbidity measurement
  Turbidity (Relative Value): 0
Turbidity measurement; final conc. 8.3 μm in DDW
  Ave Turbidity (NTU): 0 NTU
[6]; [17]
  IC50: 0.42 µM
[7]
  IC50: 1.3 µM

## COc1cc(/C=C/C(=O)CC(=O)/C=C/c2ccc(O)c(OC)c2)ccc1O [curcumin, reference compound]
[10]
  IC50: 8.07 µM
[1]; Homo sapiens, ASPC1
  IC50: 18.5 µM
[8]; Homo sapiens, NCI-H226
  IC50: 15.1 µM
[2]; Homo sapiens, PANC-1
  IC50: 29.2 µM
[3]; Homo sapiens, HuT78
  IC50: 9.01 µM
[4]; Homo sapiens, G-361
  IC50: 16.8 µM
[5]; T-cell
  IC50: 18.1 µM
[11]; Table 4, 72 hours, read-out: IC50 DLD-1
  IC50: 18.7 µM
[11]; Table 6, read-out: IC50 (μM) DLD-1
  IC50: 44.8 µM
[12]
  IC50: > 50 µM
[13]
  IC50: 8.66 µM
[14]
  IC50: 11 µM
[9]; Homo sapiens, MSTO-211H
  IC50: 33.7 µM
Turbidity measurement; [15]
  Turbidity/μm: 0.29 NTU/μM
Turbidity measurement; [16]
  Relative Value (turbidity): 1
Turbidity measurement; Table 2, final conc. 1.25 μM
  Turbidity (NTU): 4.96 NTU
  Turbidity/μm: 3.968 NTU/μM
Turbidity measurement; Table 2, final conc. 5.0 μM
  Turbidity (NTU): 29.0 NTU
  Turbidity/μm: 5.8 NTU/μM
Turbidity measurement; Table 2, value in parentheses, relative to curcumin = 1.00
  Relative Value (turbidity): (1.00)
Turbidity measurement
  Turbidity (Relative Value): 1
Turbidity measurement; final concentration 50 μM in distilled water or DMEM with 10% fetal bovine serum, from DMSO
  appearance of solution: cloudy
[6]; Homo sapiens, HCT-116, read-out: IC50 HCT-116, Table 4, 72 hours
  IC50: 16 µM
[6]; Homo sapiens, HCT-116, Table 3, HCT116, cell count after 72 hours of culture vs DMSO control, read-out: IC50
  IC50: 16 µM
[6]; Homo sapiens, HCT-116, Table 6, read-out: IC50 (μM) HCT116
  IC50: 7.08 µM
[7]; Endothelial cell
  IC50: 11.9 µM
